Key:
Format in all cases: functional
Pseudomonas aeruginosa [1] = assay: Antibacterial activity against Pseudomonas aeruginosa assessed as diameter of inhibition zone at 0.5% after 24 hrs
Escherichia coli [2] = assay: Antibacterial activity against Escherichia coli assessed as diameter of inhibition zone at 0.25% after 24 hrs
Escherichia coli [3] = assay: Antibacterial activity against Escherichia coli assessed as diameter of inhibition zone at 1.0% after 24 hrs
Vibrio cholerae [4] = assay: Antibacterial activity against Vibrio cholerae assessed as diameter of inhibition zone at 0.25% after 24 hrs; set-up: scale not given: the % may be the effect or the level left
Vibrio cholerae [5] = assay: Antibacterial activity against Vibrio cholerae assessed as diameter of inhibition zone at 0.5% after 24 hrs; set-up: scale not given: the % may be the effect or the level left
Vibrio cholerae [6] = assay: Antibacterial activity against Vibrio cholerae assessed as diameter of inhibition zone at 2.0% after 24 hrs; set-up: scale not given: the % may be the effect or the level left
Staphylococcus aureus [7] = assay: Antibacterial activity against Staphylococcus aureus assessed as diameter of inhibition zone at 1.0% after 24 hrs
Pseudomonas aeruginosa [8] = assay: Antibacterial activity against Pseudomonas aeruginosa assessed as diameter of inhibition zone at 2.0% after 24 hrs
Escherichia coli [9] = assay: Antibacterial activity against Escherichia coli assessed as diameter of inhibition zone at 0.5% after 24 hrs
Staphylococcus aureus [10] = assay: Antibacterial activity against Staphylococcus aureus assessed as diameter of inhibition zone at 0.5% after 24 hrs
Vibrio cholerae [11] = assay: Antibacterial activity against Vibrio cholerae assessed as diameter of inhibition zone at 1.0% after 24 hrs; set-up: scale not given: the % may be the effect or the level left
Pseudomonas aeruginosa [12] = assay: Antibacterial activity against Pseudomonas aeruginosa assessed as diameter of inhibition zone at 1.0% after 24 hrs
Staphylococcus aureus [13] = assay: Antibacterial activity against Staphylococcus aureus assessed as diameter of inhibition zone at 2.0% after 24 hrs
Staphylococcus aureus [14] = assay: Antibacterial activity against Staphylococcus aureus assessed as diameter of inhibition zone at 0.25% after 24 hrs
Pseudomonas aeruginosa [15] = assay: Antibacterial activity against Pseudomonas aeruginosa assessed as diameter of inhibition zone at 0.25% after 24 hrs
Escherichia coli [16] = assay: Antibacterial activity against Escherichia coli assessed as diameter of inhibition zone at 2.0% after 24 hrs

| Structure (SMILES) | inhibition zone (IZ) (Pseudomonas aeruginosa [1]) [mm] | inhibition zone (IZ) (Escherichia coli [2]) [mm] | inhibition zone (IZ) (Escherichia coli [3]) [mm] | Activity (Vibrio cholerae [4]) [%] | Activity (Vibrio cholerae [5]) [%] | Activity (Vibrio cholerae [6]) [%] | inhibition zone (IZ) (Staphylococcus aureus [7]) [mm] | inhibition zone (IZ) (Pseudomonas aeruginosa [8]) [mm] | inhibition zone (IZ) (Escherichia coli [9]) [mm] | inhibition zone (IZ) (Staphylococcus aureus [10]) [mm] | Activity (Vibrio cholerae [11]) [%] | inhibition zone (IZ) (Pseudomonas aeruginosa [12]) [mm] | inhibition zone (IZ) (Staphylococcus aureus [13]) [mm] | inhibition zone (IZ) (Staphylococcus aureus [14]) [mm] | inhibition zone (IZ) (Pseudomonas aeruginosa [15]) [mm] | inhibition zone (IZ) (Escherichia coli [16]) [mm] |
| --- | --- | --- | --- | --- | --- | --- | --- | --- | --- | --- | --- | --- | --- | --- | --- | --- |
| Oc1ccccc1/C=N/NC(=S)Nc1ccccc1 | 5 | 5 | 8 | 4 | 6 | 9 | 8 | 9 | 7 | 6 | 8 | 7 | 9 | – | – | – |
| CN[C@@H]1[C@H](O[C@H]2[C@H](O[C@H]3[C@H](O)[C@@H](O)[C@H](N=C(N)N)[C@@H](O)[C@@H]3N=C(N)N)O[C@@H](C)[C@]2(O)C=O)O[C@@H](CO)[C@H](O)[C@H]1O [STREPTOMYCIN] | 21 | 18 | 22 | 14 | 17 | 22 | 23 | 24 | 20 | 19 | 20 | 23 | 25 | 17 | 18 | 25 |

From ChEMBL document CHEMBL1149767, “Structural and biological studies of mononuclear palladium(II) complexes containing N-substituted thiosemicarbazones” (2008)
